Reference: US8455528B2, “Imidazole derivatives useful as inhibitors of FAAH” (Merck Sharp & Dohme Corp., priority 2008, dated 2013)
Where a name gives a salt, the structure may show the parent alone. Read-outs that look alike come from different tables or passages of the source.

Target: T1, Human FAAH (Homo sapiens, UniProt O00519)
T1 construct: The full length FAAH was subcloned into the mammalian expression vector, pcDEF.neo; expressed in transfected cells
T1 sequence (O00519 1-579): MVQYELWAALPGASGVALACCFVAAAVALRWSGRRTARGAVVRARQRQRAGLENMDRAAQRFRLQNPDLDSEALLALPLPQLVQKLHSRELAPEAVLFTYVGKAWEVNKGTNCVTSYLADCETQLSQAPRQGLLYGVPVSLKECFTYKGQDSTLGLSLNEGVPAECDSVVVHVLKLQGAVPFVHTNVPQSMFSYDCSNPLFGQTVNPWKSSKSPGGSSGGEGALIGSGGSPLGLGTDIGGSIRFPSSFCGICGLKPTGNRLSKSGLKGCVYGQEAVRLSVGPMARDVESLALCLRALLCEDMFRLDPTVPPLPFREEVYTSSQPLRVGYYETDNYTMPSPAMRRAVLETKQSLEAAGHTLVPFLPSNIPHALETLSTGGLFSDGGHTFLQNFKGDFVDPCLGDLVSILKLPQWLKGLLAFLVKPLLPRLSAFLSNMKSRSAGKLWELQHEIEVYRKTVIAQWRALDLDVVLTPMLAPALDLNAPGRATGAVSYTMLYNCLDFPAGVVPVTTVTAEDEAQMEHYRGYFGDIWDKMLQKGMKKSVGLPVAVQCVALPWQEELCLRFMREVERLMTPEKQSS
Assay: Human FAAH lysate assay (CHO cell lysate, AAMCA fluorescent substrate)
Type: biochemical
Excerpt: To assist in assay development stable cell lines for human, murine and rat full length FAAH were developed. Human FAAH cDNA (Accession No: NM-001441.1) was purchased from Origene (Rockville, Md.). The full length FAAH was subcloned into the mammalian expression vector, pcDEF.neo, using XbaI and EcoRI restriction sites and used for stable cell line generation. CHO cells expressing FAAH were used to prepare either crude cell lysate or microsome fractions. To harvest cells, tissue culture media was decanted, the monolayer washed three times with Ca^++Mg^++ free PBS and cells recovered after 15 min in enzyme free dissociation media (Millipore Corp, Billerica, Mass.). Cells were collected by centrifuging at 2000 rpm for 15 min. and the cell pellet re-suspended with 50 mM HEPES (pH 7.4) containing 1 mM EDTA and the protease inhibitors aprotinin (1 mg/ml) and leupeptin (100 μM). […] The pellet containing FAAH-enriched microsomes was re-suspend in 50 mM HEPES, (pH 7,4) 1 mM EDTA, and any remaining DNA sheared by passage of material through a 23 gauge needle and aliquots of enzyme were store at -80° C. prior to use. […] (American Radiolabeled Chemicals; 1 mCi/ml) with FAAH (Life Sciences (1995), 56, 1999-2005 and Journal of Pharmacology and Experimented Therapeutics (1997), 283, 729-734), Analytical. Biochemistry (2003), 318, 270-5. […] Analytical. Biochemistry (2005). 343, 143-51 […] Fluorescent release as a measure of FAAH activity was monitored by reading the plate in a CytoFluor Multiplate Reader ([…]). Whole cell assay is conducted with cells harvested after rinsing tissue culture flasks three times with Ca^++Mg^++ free PBS, incubating for 10 min in Enzyme free dissociation media and centrifuging for 5 minutes at 1,000 rpm in table top centrifuge. Cells are resuspended in assay buffer at desired cell number in (4×10^4 cells/assay in 96-well format; 1×10^4 cells/assay in 384-well format) and assayed as described. […] The reaction was terminated by addition of 2 volumes of chloroform:methanol (1:1) and mixed by vortexing. […] K., et al. A fluorescence-based assay for fatty acid amide hydrolase compatible with high-throughput screening. Anal. Biochem. 343:143-51 (2005) • Wilson S. J., et l. A high-throughput-compatible assay for determining the activity of fatty acid amide hydrolase. Anal Biochem. 318:270-5 (2003).

[1] = human FAAH lysate, read-out: hFAAH lysate IC50
[2] = human FAAH lysate, read-out: Human FAAH lysate assay: IC50

IC50 [1] [nM] | IC50 [2] [nM] | Compound | also measured
60.2 |  | Cn1c(-c2ccccn2)nc(-c2ccc(C(C)(C)O)nc2)c1Sc1ccc(F)c(F)c1 [Example 107] | 
 | 17.9 | Cn1c(C2CC2)nc(-c2ccc3nc(C(F)F)ccc3c2)c1Sc1ccc(Cl)cn1 [Example 131, 6-{5-[(5-chloropyridin-2-sulfanyl]-2-cyclopropyl-1-methyl-1H-imidazol-4-yl}-2-difluoromethyl)quinoline] | 
134 |  | Cn1c(-c2ccccn2)nc(-c2ccc(C(C)(C)O)nc2)c1Sc1ccc(F)cn1 [Example 109] | 
 | 24.4 | CCOC(C)(C)c1nc(-c2ccc(-c3ncon3)cc2)c(Sc2ccc(Cl)cc2)n1C [Example 147, 3-(4-{5-[(4-chlorophenyl)sulfanyl]-2-(2-ethoxypropan-2-yl)-1-methyl-1H-imidazol-4-yl}phenyl)-1,2,4-oxadiazole] | 
 | 17.5 | Cn1c(-c2ccccn2)nc(-c2ccc(-c3ccco3)cc2)c1Sc1ccc(Cl)cc1 [Example 116, 5-[(4-chlorophenyl)thio]-4-[4-(2-furyl)phenyl]-1-methyl-2-pyridin-2-yl-1H-imidazol-3-ium trifluoroacetate] | 
33.7 |  | Cn1c(-c2ccccn2)nc(-c2ccc(C(C)(C)O)nc2)c1Sc1ccc(Cl)cc1F [Example 110] | 
 | 67.9 | CCn1nccc1-c1nc(-c2ccc(-c3ncon3)cc2)c(Sc2ccc(Cl)cc2)n1C [Example 141, 3-(4-{5-[(4-chlorophenyl)sulfanyl]-2-(1-ethyl-1H-pyrazol-5-yl)-1-methyl-1H-imidazol-4-yl}phenyl)-1,2,4-oxadiazole] | 
 | 15.6 | CC(C)n1ccc(-c2nc(-c3ccc(-c4ncon4)cc3)c(Sc3ccc(Cl)cc3)n2C)n1 [Example 142, 3-(4-{5-[(4-chlorophenyl)sulfanyl]-1-methyl-2-[1-(propan-2-yl)-1H-pyrazol-3-yl]-1H-imidazol-4-yl}phenyl)-1,2,4-oxadiazole] | 
202 |  | COc1cnc(Sc2c(-c3ccc(S(C)(=O)=O)nc3)nc(-c3ccccn3)n2C)nc1 [Example 104] | 
 | 15.6 | Cn1c(I)nc(-c2ccc(S(C)(=O)=O)cc2)c1Sc1ccc(Cl)cc1 [Example 133, 5-[(4-chlorophenyl)thio]-2-iodo-1-methyl-4-[4-(methylsulfonyl)phenyl]-1H-imidazole] | 
18.5 |  | Cn1c(-c2ccccn2)nc(-c2ccc(-c3cccs3)cc2)c1Sc1ccc(Cl)cc1 [Example 121] | 
37.6 |  | Cn1c(-c2ccccn2)nc(-c2ccc(S(C)(=O)=O)nc2)c1Sc1ccc(F)c(F)c1 [Example 103] | 
 | 91 | Cn1c(-c2cc(C3CC3)on2)nc(-c2ccc(C(C)(C)O)nc2)c1Sc1ccc(Cl)cn1 [Example 148, 2-(5-{5-[(5-chloropyridin-2-yl)sulfanyl]-2-(5-cyclopropylisoxazol-3-yl)-1-methyl-1H-imidazol-4-yl}pyridin-2-yl)propan-2-ol] | 
15.4 |  | Cn1c(-c2ccccn2)nc(-c2ccc(S(C)(=O)=O)nc2)c1Sc1ccc(F)cc1F [Example 102] | 
 | 77.9 | CC(CO)NC(=O)c1ccc(-c2nc(-c3ccccn3)n(C)c2Sc2ccc(Cl)cc2)cc1 (stereo not shown) [Example 127, 4-{5-[(4-chlorophenyl)thio]-1-methyl-2-pyridin-2-yl-1H-imidazol-4-yl}-N-(2-hydroxy-1-methylethyl)benzamide] | 
24.8 |  | Cn1c(-c2nccs2)nc(-c2ccc(S(C)(=O)=O)cc2)c1Sc1ccc(Cl)cc1 [Example 138] | 
7.7 |  | Cn1c(-c2ccccn2)nc(-c2ccc(-c3ccncc3)cc2)c1Sc1ccc(Cl)cn1 [Example 118] | 
67 |  | Cn1c(-c2ccc(F)cc2)nc(-c2ccc(C(C)(C)O)nc2)c1Sc1ccc(Cl)cc1 [Example 115] | 
 | 198 | Cn1cnc(-c2ccc(OC(C)(C)CO)cc2)c1Sc1ccc(Cl)cn1 [Example 125, 5-[(5-chloropyridin-2-yl)thio]-4-[4-(2-hydroxy-1,1-dimethylethoxy)phenyl]-1-methyl-1H-imidazol-3-ium trifluoroacetate] | 

IC50 [1] [nM] | IC50 [2] [nM] | Compound | also measured
 | 208 | Cn1c(C(C)(C)O)nc(-c2ccc(-c3ncon3)cc2)c1Sc1ccc(Cl)cc1 [Example 146, 2-{5-[(4-chlorophenyl)sulfanyl]-1-methyl-4-[4-(1,2,4-oxadiazol-3-yl)phenyl]-1H-imidazol-2-yl}propan-2-ol] | 
67.9 |  | Cn1c(-c2ccc(F)cc2)nc(-c2ccc(C(C)(C)O)nc2)c1Sc1ccc(Cl)cc1F [Example 113] | 
114 |  | Cn1c(-c2ccc(F)c(F)c2)nc(-c2ccc(C(C)(C)O)nc2)c1Sc1ccc(Cl)cc1F [Example 112] | 
122 |  | COc1ccc(-c2nc(-c3ccc(S(C)(=O)=O)cc3)c(Sc3ccc(Cl)cc3)n2C)cn1 [Example 136] | 
 |  | Cn1c(-c2ccccc2)nc(Sc2ccc(Cl)cc2)c1-c1ccc(C#N)cc1 [Ex 3, 4-{4-[(4-chlorophenyl)thio]-1-methyl-2-phenyl-1H-imidazol-5-yl}benzonitrile] | IC50 (FAAH inhibition, CHO cell lysate expressing human FAAH, read-out: Human Lysate): 370 nM
12.2 |  | COC(=O)c1ccc(-c2nc3c4ncccc4ccn3c2Sc2ccc(Cl)cc2)cc1 [Example 129] | 
87.4 |  | Cn1c(-c2ccc(F)c(F)c2)nc(-c2ccc(C(C)(C)O)nc2)c1Sc1ccc(Cl)cc1 [Example 114] | 
 | 186 | Cn1cnc(-c2ccc(OC(C)(C)C(O)C(F)(F)F)cc2)c1Sc1ccc(Cl)cn1 (stereo not shown) [Example 126, 3-(4-{5-[(5-chloropyridin-2-yl)thio]-1-methyl-1H-imidazol-4-yl}phenoxy)-1,1,1-trifluoro-3-methylbutan-2-ol] | 
 | 37.8 | Cn1c(-c2ccccn2)nc(-c2ccc(C(C)(C)O)nc2)c1Sc1ccc(Cl)cc1 [Example 105, 2-(5-{5-[(4-Chlorophenyl)thio]-1-methyl-2-pyridin-2-yl-1H-imidazol-4-yl}pyridin-2-yl)propan-2-ol] | 
21.2 |  | Cn1c(-c2ncco2)nc(-c2ccc(S(C)(=O)=O)cc2)c1Sc1ccc(Cl)cc1 [Example 139] | 
8.7 |  | Cn1c(-c2ccccn2)nc(-c2ccc(-c3ccsc3)cc2)c1Sc1ccc(Cl)cc1 [Example 117] | 
 | 11.7 | Cn1ccc(-c2nc(-c3ccc(-c4ncon4)cc3)c(Sc3ccc(Cl)cc3)n2C)n1 [Example 143, 3-(4-{5-[(4-chlorophenyl)sulfanyl]-1-methyl-2-(1-methyl-1H-pyrazol-3-yl)-1H-imidazol-4-yl}phenyl)-1,2,4-oxadiazole] | 
37.8 |  | Cn1c(-c2ccccn2)nc(-c2ccc(C(C)(C)O)nc2)c1Sc1ccc(Cl)cn1 [Example 106] | 
144 |  | CN(C)C(=O)c1ccc2cc(-c3nc(C4CC4)n(C)c3Sc3ccc(Cl)cn3)ccc2n1 [Example 132, 6-{5-[(5-chloropyridin-2-yl)thio]-2-cyclopropyl-1-methyl-1H-imidazol-4-yl}-N,N-dimethylquinoline-2-carboxamide] | 
 | 16.5 | Cn1c(-c2cccs2)nc(-c2ccc(S(C)(=O)=O)cc2)c1Sc1ccc(Cl)cc1 [Example 137, 5-[(4-chlorophenyl)sulfanyl]-1-methyl-4-[4-(methylsulfonyl)phenyl]-2-(thiophen-2-yl)-1H-imidazole] | 
 | 7.4 | Cn1c(-c2ccn(C3CC3)n2)nc(-c2ccc(-c3ncon3)cc2)c1Sc1ccc(Cl)cc1 [Example 144, 3-(4-{5-[(4-chlorophenyl)sulfanyl]-2-(1-cyclopropyl-1H-pyrazol-3-yl)-1-methyl-1H-imidazol-4-yl}phenyl)-1,2,4-oxadiazole] | 
26.4 |  | Cn1c(-c2ccccn2)nc(-c2ccc(-c3ncco3)cc2)c1Sc1ccc(Cl)cn1 [Example 120] | 
33.2 |  | Cn1c(-c2ccccn2)nc(-c2ccc(C(C)(C)O)nc2)c1Sc1ccc(F)cc1F [Example 108] | 
